Results reported in PMC4685510, “A Cell Biologist’s Field Guide to Aurora Kinase Inhibitors” (Frontiers in Oncology, 2015).

Assays:
Assay in all cases: biochemical
Type in all cases: biochemical
[1] = biological target: T1, 363 human kinases (including Aurora A/B/C) (Homo sapiens, UniProt O15146); settings: MUSK; for remaining activity at 0.1 µM: 100 nM; for remaining activity at 0.1 µM / remaining activity at 0.5 µM: read-out: % Enzyme Activity (relative to DMSO controls)
T1 sequence (O15146 24-869): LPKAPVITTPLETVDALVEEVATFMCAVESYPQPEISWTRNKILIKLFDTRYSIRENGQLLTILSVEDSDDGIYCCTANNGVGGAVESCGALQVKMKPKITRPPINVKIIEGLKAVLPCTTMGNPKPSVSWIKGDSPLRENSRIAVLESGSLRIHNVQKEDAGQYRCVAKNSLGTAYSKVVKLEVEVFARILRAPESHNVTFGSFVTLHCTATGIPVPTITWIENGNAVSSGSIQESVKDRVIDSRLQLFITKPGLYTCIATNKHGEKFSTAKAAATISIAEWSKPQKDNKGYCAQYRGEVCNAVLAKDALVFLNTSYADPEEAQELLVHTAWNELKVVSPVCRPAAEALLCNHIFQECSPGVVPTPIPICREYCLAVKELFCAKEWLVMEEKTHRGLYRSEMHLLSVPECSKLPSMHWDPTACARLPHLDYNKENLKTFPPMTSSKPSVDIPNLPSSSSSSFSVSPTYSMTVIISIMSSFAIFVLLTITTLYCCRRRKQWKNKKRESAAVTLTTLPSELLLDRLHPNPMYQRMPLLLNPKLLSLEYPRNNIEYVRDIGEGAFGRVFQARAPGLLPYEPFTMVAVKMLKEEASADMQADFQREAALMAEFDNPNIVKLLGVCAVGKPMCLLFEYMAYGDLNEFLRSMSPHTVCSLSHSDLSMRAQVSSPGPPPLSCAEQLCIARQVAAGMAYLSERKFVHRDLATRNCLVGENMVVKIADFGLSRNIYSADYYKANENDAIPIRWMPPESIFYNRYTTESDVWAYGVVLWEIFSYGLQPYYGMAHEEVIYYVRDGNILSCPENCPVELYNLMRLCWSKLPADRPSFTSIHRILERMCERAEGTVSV
From the text: (§1) However, the Aurora A/B selectivity ratios derived from our in vitro and in vivo data can be compared to prioritize inhibitors.

[2] = biological target: T2, 363 human kinases (including Aurora A/B/C) (Homo sapiens, UniProt P51813); settings: BMX/ETK, [ATP] 50 µM; for remaining activity at 0.1 µM: 100 nM; for remaining activity at 0.1 µM / remaining activity at 0.5 µM: read-out: % Enzyme Activity (relative to DMSO controls)
T2 sequence (P51813 1-675): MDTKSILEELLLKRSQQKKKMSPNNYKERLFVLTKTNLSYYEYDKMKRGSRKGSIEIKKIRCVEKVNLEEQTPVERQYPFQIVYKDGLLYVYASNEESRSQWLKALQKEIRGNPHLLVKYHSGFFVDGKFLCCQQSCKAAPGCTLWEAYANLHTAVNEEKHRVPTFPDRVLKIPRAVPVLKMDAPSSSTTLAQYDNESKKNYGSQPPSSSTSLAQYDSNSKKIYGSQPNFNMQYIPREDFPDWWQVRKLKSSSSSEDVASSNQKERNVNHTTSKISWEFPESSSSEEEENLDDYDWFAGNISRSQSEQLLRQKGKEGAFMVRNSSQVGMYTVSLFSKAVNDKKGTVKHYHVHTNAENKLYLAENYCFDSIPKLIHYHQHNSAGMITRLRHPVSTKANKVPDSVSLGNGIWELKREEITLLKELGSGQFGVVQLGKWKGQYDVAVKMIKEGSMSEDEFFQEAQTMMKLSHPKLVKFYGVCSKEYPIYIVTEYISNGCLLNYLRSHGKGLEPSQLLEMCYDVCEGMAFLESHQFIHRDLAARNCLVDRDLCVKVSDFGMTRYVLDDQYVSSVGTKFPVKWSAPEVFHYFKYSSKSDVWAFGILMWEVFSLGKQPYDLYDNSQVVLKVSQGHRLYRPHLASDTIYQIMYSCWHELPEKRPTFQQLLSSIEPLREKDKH
From the text: as §1

[3] = biological target: 363 human kinases (including Aurora A/B/C) (Homo sapiens, UniProt Q00526); settings: CDK3/cyclin E, [ATP] 30 µM; for remaining activity at 0.1 µM: 100 nM; for remaining activity at 0.1 µM / remaining activity at 0.5 µM: read-out: % Enzyme Activity (relative to DMSO controls)
363 human kinases (including Aurora A/B/C) (Homo sapiens, UniProt Q00526), sequence (Q00526 whole entry): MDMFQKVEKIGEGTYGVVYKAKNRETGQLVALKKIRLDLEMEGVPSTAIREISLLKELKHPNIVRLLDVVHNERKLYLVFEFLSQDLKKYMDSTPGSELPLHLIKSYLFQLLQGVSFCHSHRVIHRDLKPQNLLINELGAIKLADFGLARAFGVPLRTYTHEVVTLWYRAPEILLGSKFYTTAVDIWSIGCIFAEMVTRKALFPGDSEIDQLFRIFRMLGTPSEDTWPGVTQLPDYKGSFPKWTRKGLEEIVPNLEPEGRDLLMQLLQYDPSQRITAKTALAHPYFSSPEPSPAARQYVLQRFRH
From the text: as §1

[4] = biological target: 363 human kinases (including Aurora A/B/C) (Homo sapiens, UniProt Q15375); settings: EPHA7, [ATP] 100 µM; for remaining activity at 0.1 µM: 100 nM; for remaining activity at 0.1 µM / remaining activity at 0.5 µM: read-out: % Enzyme Activity (relative to DMSO controls)
363 human kinases (including Aurora A/B/C) (Homo sapiens, UniProt Q15375), sequence (Q15375 28-998): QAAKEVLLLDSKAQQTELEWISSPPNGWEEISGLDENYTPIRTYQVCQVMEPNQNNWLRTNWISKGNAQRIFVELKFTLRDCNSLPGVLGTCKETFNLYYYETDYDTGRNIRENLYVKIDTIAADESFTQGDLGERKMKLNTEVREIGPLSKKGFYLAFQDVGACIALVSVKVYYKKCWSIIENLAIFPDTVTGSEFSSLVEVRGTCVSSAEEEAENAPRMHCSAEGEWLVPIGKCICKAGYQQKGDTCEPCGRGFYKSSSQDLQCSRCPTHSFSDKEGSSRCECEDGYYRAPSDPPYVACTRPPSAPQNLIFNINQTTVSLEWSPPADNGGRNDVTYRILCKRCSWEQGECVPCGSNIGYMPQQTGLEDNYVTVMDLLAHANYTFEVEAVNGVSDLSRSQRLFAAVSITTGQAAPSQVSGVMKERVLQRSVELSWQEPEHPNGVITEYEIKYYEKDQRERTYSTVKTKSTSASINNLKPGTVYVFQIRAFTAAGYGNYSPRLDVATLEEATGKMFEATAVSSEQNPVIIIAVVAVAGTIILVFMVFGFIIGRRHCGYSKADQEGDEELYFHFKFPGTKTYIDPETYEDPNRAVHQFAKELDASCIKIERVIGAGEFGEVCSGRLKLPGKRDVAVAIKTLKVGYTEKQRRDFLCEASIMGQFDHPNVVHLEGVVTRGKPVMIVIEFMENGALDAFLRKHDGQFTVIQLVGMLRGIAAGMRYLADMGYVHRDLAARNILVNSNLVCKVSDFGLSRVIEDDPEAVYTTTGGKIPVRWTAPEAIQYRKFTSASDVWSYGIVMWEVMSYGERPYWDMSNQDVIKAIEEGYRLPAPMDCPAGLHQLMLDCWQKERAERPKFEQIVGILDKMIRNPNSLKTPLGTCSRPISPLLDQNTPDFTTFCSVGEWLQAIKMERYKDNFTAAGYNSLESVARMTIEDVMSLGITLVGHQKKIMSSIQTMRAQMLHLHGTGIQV
From the text: as §1

[5] = biological target: T3, 363 human kinases (including Aurora A/B/C) (Homo sapiens, UniProt Q96PY6); settings: NEK1; for remaining activity at 0.1 µM: 100 nM; for remaining activity at 0.1 µM / remaining activity at 0.5 µM: read-out: % Enzyme Activity (relative to DMSO controls)
T3 sequence (Q96PY6 1-1258): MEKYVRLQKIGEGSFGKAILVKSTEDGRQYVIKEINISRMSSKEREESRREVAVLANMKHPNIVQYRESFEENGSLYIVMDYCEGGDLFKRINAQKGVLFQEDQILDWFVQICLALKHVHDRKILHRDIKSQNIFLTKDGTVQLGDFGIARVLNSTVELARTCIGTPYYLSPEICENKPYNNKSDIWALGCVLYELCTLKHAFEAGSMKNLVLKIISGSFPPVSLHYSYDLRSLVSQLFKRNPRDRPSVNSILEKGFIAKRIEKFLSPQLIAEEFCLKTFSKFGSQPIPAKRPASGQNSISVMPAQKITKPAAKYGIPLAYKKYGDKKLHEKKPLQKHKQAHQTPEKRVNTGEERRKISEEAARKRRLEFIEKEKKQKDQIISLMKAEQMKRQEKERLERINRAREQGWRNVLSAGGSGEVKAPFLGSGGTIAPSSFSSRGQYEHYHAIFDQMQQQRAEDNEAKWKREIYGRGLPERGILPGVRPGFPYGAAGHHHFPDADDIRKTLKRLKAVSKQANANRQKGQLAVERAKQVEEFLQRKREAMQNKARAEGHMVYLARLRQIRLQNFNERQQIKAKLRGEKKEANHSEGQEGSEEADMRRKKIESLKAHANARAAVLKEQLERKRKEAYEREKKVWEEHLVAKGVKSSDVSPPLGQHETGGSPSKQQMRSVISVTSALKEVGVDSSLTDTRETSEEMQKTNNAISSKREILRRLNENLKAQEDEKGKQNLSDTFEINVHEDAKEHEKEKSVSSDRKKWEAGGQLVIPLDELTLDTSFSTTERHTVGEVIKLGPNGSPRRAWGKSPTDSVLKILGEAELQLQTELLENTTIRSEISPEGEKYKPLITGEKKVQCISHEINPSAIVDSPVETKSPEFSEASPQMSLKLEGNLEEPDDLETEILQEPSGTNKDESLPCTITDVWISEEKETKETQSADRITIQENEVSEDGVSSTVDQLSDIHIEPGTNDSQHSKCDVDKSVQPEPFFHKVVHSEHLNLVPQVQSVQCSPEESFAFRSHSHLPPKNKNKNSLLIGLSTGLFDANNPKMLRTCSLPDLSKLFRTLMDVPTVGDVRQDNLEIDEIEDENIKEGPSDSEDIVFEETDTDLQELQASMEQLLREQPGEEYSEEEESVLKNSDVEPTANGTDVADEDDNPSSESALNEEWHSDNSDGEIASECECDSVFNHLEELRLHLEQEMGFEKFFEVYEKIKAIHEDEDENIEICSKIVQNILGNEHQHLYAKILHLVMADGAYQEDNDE
From the text: as §1

SMILES	remaining activity at 0.1 µM [1] [%]	remaining activity at 0.1 µM [2] [%]	remaining activity at 0.1 µM [3] [%]	remaining activity at 0.1 µM [4] [%]	remaining activity at 0.1 µM [5] [%]	remaining activity at 0.5 µM ([1]; 500 nM) [%]	remaining activity at 0.5 µM ([2]; 500 nM) [%]	remaining activity at 0.5 µM ([3]; 500 nM) [%]	remaining activity at 0.5 µM ([4]; 500 nM) [%]	remaining activity at 0.5 µM ([5]; 500 nM) [%]	% Enzyme Activity (relative to DMSO controls) ([1]; 500 nM) [%]	% Enzyme Activity (relative to DMSO controls) ([2]; 500 nM) [%]	% Enzyme Activity (relative to DMSO controls) ([3]; 500 nM) [%]	% Enzyme Activity (relative to DMSO controls) ([4]; 500 nM) [%]	% Enzyme Activity (relative to DMSO controls) ([5]; 500 nM) [%]
CCn1cc(-c2ccnc3[nH]c(-c4cccc(CN(C)C)c4)cc23)c(-c2ccc(NC(=O)N(C)C)cc2)n1 [GSK1070916]	96	96.1	83.7	89	101										
O=C(O)[C@]1(Cc2cccc(Nc3nccs3)n2)CC[C@@H](Oc2cccc(Cl)c2F)CC1 [MK-5108]	104	48.1	88.3	35.6	101	71.9	14.2	80.5	9.76	103					
O=C(c1cccc(Cl)c1F)N1CCN(Cc2cccc(Nc3nccs3)n2)CC1 [MK-8745]						95.3	90.7	78.6	63.1	97.9	94.70	88.19	77.67	62.14	94.59
